Biological target: T1, human 11beta-HSD1 (Homo sapiens, UniProt P28845)
T1 construct: made in house; host or cells: HEK293 cells (ATCC CRL-1573), transient transfection with lipofectamine; microsomal fraction used
Assay: Microsome assay (cortisone to cortisol conversion, ELISA)
Assay type: biochemical
Details: microsomes from HEK293 cells transiently expressing human 11beta-HSD1; 60 min, 37° C.; read-out: h 11-beta-HSD 1 IC50
Procedure: The cDNA encoding the human 11beta-HSD1 protein was cloned into the expression vector pcDNA3 (Stratagene). This construct (for details see Alex Odermatt et al.; J Biol. Chem., 1999, Vol. 274, Issue 40, 28762-28770) was used to transiently express the protein in HEK293 cells (ATCC number: CRL-1573, described in Graham, F. L., Smiley, J., Russell, W. C., Nairn, R.; (1977)) using lipofectamine. 48 h after transfection cells were washed twice with ice-cold PBS (Phosphate buffered Saline). To 1 volume of cell suspension in PBS 2 volumes of ice-cold lysis buffer (50 mM Tris; pH7.5; 1 mM EDTA; 100 mM NaCl) were added. The cells were lysed by Potter-homogenization (20 strokes). The resulting homogenate was sonicated with a tip sonicator (10% output; 2×30 sec.) and cleared by a low speed centrifugation (10 min×9000 g; 4° C.). The microsomal fraction was collected by a high speed centrifugation (60 min×110'000 g). […]
Microsomes isolated from HEK293 cells transiently expressing human 11beta-HSD1 (for details see above) were incubated in assay buffer (100 mM NaCl; 1 mM EDTA; 1 mM EGTA; 1 mM MgCl; 250 mM Sucrose; 20 mM Tris pH 7.4; Cortisone 50-200 nM and NADPH 1 mM) together with different concentrations of test substances. […] The amount of Cortisol produced in this assay was determined using a commercially available, ELISA-based Cortisol-detection kit (Distributed by Assay Design, Inc.). […]

T1 sequence (P28845 whole entry): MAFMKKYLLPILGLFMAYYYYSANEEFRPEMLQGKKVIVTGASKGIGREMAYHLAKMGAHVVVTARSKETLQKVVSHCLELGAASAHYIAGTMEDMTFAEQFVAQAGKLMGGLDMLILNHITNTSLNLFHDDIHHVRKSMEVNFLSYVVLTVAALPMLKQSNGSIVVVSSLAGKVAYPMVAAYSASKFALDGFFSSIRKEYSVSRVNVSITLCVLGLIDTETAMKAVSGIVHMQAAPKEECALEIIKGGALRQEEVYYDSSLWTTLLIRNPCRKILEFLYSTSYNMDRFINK

Row | SMILES | IC50 [nM]
1 | Cc1c(Cl)cccc1S(=O)(=O)Nc1ccc(-c2ccccc2Cl)cn1 [Example 2, 3-chloro-N-[5-(2-chloro-phenyl)-pyridin-2-yl]-2-methyl-benzenesulfonamide] | 3
2 | Cc1cc(F)ccc1-c1ccc(NS(=O)(=O)c2cccc(Cl)c2)nc1C [Example 110, 3-Chloro-N-[5-(4-fluoro-2-methyl-phenyl)-6-methyl-pyridin-2-yl]-benzenesulfonamide] | 12
